Reference: patent US20140274782A1, “AFFINITY REAGENTS AND METHODS FOR DETECTION, PURIFICATION, AND PROTEOMIC ANALYSIS OF METHYLATED PROTEINS” (The Board of Trustees of the Leland Stanford Junior …, priority 2013, published 2014)

Legend:
3×MBT domain of L3MBTL1 [1] = assay: SILAC proteomic pull-down 3×MBT vs 3×MBTD355N from 293T nuclear extract, LC-MS/MS; format: binding, human; conditions: SILAC ratio, 293T nuclear extract pull-down; * = protein identified in only one labeling experiment
Method: Protein pull-downs were performed as described above using 600 μg of nuclear extract prepared with isotopic labels as indicated. After eluting with glutathione, 3×MBT domain was removed by dialysis into high salt and rebinding to GSH-sepharose. Bound proteins were separated by SDS-PAGE and analyzed by in-gel tryptic digest followed by LC-MS/MS. Peptides were identified using MaxQuant version 1.2.2.5 (Cox and Mann (2008) Nat. Biotechnol. 26, 1367-1372) and candidate methylated peptides were verified by manual inspection.
For stable isotope labeling by amino acids in cell culture (SILAC) experiments HEK 293T cells were grown for at least six doublings in DMEM for SILAC supplemented with 10% dialyzed fetal bovine serum (FBS), 230 mg/L L-proline and either 100 mg/L each of L-lysine and L-arginine (“light” medium), D4-L-lysine and ^13C6-L-arginine (“medium” media), or ^13C6^15N2-L-lysine and ^13C6^15N4-L-arginine (Thermo Scientific). Heavy methyl labeling used DMEM without L-Methionine or L-Cysteine supplemented with D3^13C-L-Methionine (Sigma), L-Cysteine (Sigma) and 10% dialyzed FBS.
600 μg of nuclear extract was incubated overnight rotating at 4° C. with 20 μl packed 3×MBT or 3×MBTD355N beads in a total volume of 250 μL with binding buffer. Supernatant was removed and saved for use as a loading control. Beads were washed 4×5 minutes with 0.5 mL binding buffer. Protein was eluted by incubating in 20 μL elution buffer (10 mg/mL glutathione in 50 mM Tris pH 8.0) rotating at 4° C. for four hours. Elutions from 3×MBT and 3×MBTD355N were combined and dialyzed overnight at 4° C. against 10,000× volume of dissociation buffer (50 mM Tris pH 7.5, 750 mM NaCl) in a 0.1 mL Slide-A-Lyzer MINI Dialysis Device with 3.5K molecular weight cutoff (Thermo Scientific). 80 μL of GSH-Sepharose was prepared by washing briefly three times with 0.5 mL binding buffer. Dialyzed proteins were added to the GSH-Sepharose and incubated 4 hours rotating at 4° C. to deplete the GST-fusion domains. Supernatant was transferred to a fresh 1.5 mL tube. Proteins were separated by SDS-PAGE on a 10% polyacrylamide gel and stained using SilverQuest Silver Staining Kit (Life Technologies). Lanes were excised, residual 3×MBT band was removed, and gel was diced into 0.5 mm cubes. Gel pieces were destained and processed by in-gel digestion (Carlson et al. (2011) Science Signaling 4) with sequencing grade trypsin (Promega) and the peptide sample was dried completely in a vacuum centrifuge. To prepare a loading control, 2 μL each of light and heavy nuclear extract were combined, 6 μL of 8M urea was added, proteins were denatured by adding 2 μL of 100 mM dithiothreitol in digest buffer (50 mM ammonium bicarbonate) and heating to 60° C. for 1 hour, cysteine was alkylated by adding 2.2 μL 100 mg/mL iodoacetamide in digest buffer and incubating 1 hour at room temperature in darkness, and proteins were digested by adding 80 μL trypsin (Promega) at 12.5 ng/μL in digest buffer and incubating overnight at room temperature in darkness. Digestion was stopped by adding 10 μL of 10% formic acid.
Each experiment consisted of two sets of pull-downs: “forward” labeling with 3×MBT incubated with light nuclear extract and 3×MBTD355N with medium extract, and a second “reverse” labeling experiment with the label conditions swapped. Proteins were included in the results if they were quantified in both labeling directions. To determine reproducibility the entire experiment including the label swap was duplicated using independent protein preparations and a mass spectrometer at another institution.
For 3×MBT pull-down experiment #1 the gel lane was processed and peptides were loaded off-line onto a first dimension trap column (Waters Xbridge, C18, 10 μm particle size, 100 Å pore size, 5 cm packing length, 150 μm column i.d.). […]

3×MBT domain of L3MBTL1 [2] = assay: Triple SILAC pull-down, 3xMBT/3xMBTD355N ratio (cytoplasmic, nuclear and chromatin fractions of 293T cells); format: binding, human; conditions: SILAC ratio; for 3xMBT/D355N UNC Heavy / 3xMBT/D355N UNC Light: pull-down 3xMBT vs 3xMBTD355N; for 3xMBT/D355N UNC Heavy: experiment with UNC0638 in heavy SILAC media; for 3xMBT/D355N UNC Light: experiment with UNC0638 in light SILAC media; for Protein Ratios 3xMBT/D355N: pull-down by 3xMBT vs 3xMBTD355N, 293T cells;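 as to all read-outs here: proteins quantified with MaxQuant, requiring at least two unique peptides and quantification in both label directions, normalized to the mean of proteins from a digested loading control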

Row | Substance | Protein Ratio 3xMBT/D355N (3×MBT domain of L3MBTL1 [1]) | 3xMBT/D355N UNC Heavy (3×MBT domain of L3MBTL1 [2]) | 3xMBT/D355N UNC Light (3×MBT domain of L3MBTL1 [2]) | Protein Ratios 3xMBT/D355N (3×MBT domain of L3MBTL1 [2])
1 | MCM7: protein with methylated lysine identified in 3xMBT pull-down | 6.7 | 2.23 log base 2 | 2.52 log base 2 | –
2 | SSRP1: protein with methylated lysine identified in 3xMBT pull-down | 14.6 | 4.47 log base 2 | 4.11 log base 2 | –
3 | RBM25: protein with methylated lysine identified in 3xMBT pull-down | 7.7 | 2.41 log base 2 | 2.28 log base 2 | –
4 | MSH6: protein with methylated lysine identified in 3xMBT pull-down | 1.2 | 2.51 log base 2 | 2.41 log base 2 | –
5 | DNA ligase 1 | 10.7 | 3.18 log base 2 | 1.96 log base 2 | 5.9
6 | Protein Wiz | 5.3 | 0.93 log base 2 | 2.02 log base 2 | 2.7
